What all share (assay type): cell-based
The subject of one experiment is MDA MB-231. Briefly: Cell death of cancerous cell line, PrestoBlue assay. Conditions: 6 h, increasing concentrations (Figure S1). The protocol:
(§1) Alternatively, cell viability was measured using the PrestoBlue® assay (Invitrogen, Carlsbad, CA, USA). The microtiter plates containing the treated cells were incubated for 1 h with 10 µL PrestoBlue. The fluorescence was recorded at 580 nm using a FluoStar Optima plate reader (BMG LabTech, Ortenberg, Germany).
(§2) Supplementary Materials: In Search of Small
(§3) Molecule Inhibitors Targeting the Flexible CK2
(§4) Benoit Bestgen, Zakia Belaid-Choucair, Thierry Lomberget, Marc Le Borgne, Odile Filhol […]
(§5) Figure S1. Cellular effects of TAT-Pc 13. (A) MDA MB-231 cells (⦁-⦁) or HeLa cells (○-○) were incubated for 6 h with increasing concentrations of TAT-Pc 13 and cell death was measured using the PrestoBlue assay as described in Material and Methods; (B) 786-O cells were treated for 12 h with increasing concentrations of CX-4945, lysed and analyzed by Western blot; (C) 786-O cells were treated with 20 µM TAT-Pc 13 or 5 µM CX-4945 and immunostained for p21 expression.
(§6) Figure 2. Inhibition of TAT-Pc-induced cell death. MCF-10A cells were pre-treated in the absence (CTRL) or presence of 20 µM z-VAD or 30 µM Necrostatin-1 or 20 µM z-VAD + 30 µM Necrostatin-1 for 5 h and then incubated for 4 h with 25 µM random TAT-Pc 13 or TAT-Pc 13 and cell viability was evaluated as in Figure 8A. […]

The test system of a further experiment is HeLa. The description is as above. As to conditions: 6 h, increasing concentrations (Figure S1). The protocol: as §1, §2, §3, §4, §5, §6
Experiment [1] relates to p21 Thr145 phosphorylation, survivin expression, AKT activation. Briefly: Western blot of intracellular events (AKT, phospho-p21 Thr145, survivin). The procedure:
This was confirmed using the LIVE&DEAD^TM cell viability assay that provides a visual readout of cell integrity (Figure 8A lower panel). This cellular effect was also analyzed after treatment of WT or CK2β-depleted MCF-10A cells with increasing concentrations of TAT-Pc 13. TAT-Pc 13 caused a cell death in both cell types, which was already detectable at a concentration of 25 µM and became massive at 50–60 µM (Figure 8B). […] In order to investigate the intracellular events induced by TAT-Pc 13, MCF-10A cells were incubated with increasing concentrations of TAT-Pc 13 and analyzed by Western blot.
Figure 8 Cellular effects of TAT-Pc 13. (A) MCF-10A cells were incubated with 25 µM of TAT-Pc 13 for 3 h and imaged with phase microscopy (upper panel) or with increasing concentrations of TAT-Pc 13 for 2 h and cell viability was evaluated using the LIVE&DEAD™ assay. Live cells fluoresce bright green (530 nm), whereas dead cells fluoresce red-orange (645 nm) (lower panel, scale bare: 100 µm); (B) WT (○-○) or CK2β-depleted (●-●) MCF-10A cells were incubated for 4 h with increasing concentrations of TAT-Pc 13 and cell death was evaluated using the LIVE&DEAD™ assay recording fluorescence at 645 nm. Representative data shown from two independent experiments in duplicate; (C) MCF-10A cells were pre-treated in the absence or presence of 20 µM z-VAD for 5 h and then incubated for 4 h with 25 µM random TAT-Pc 13 or TAT-Pc 13 and cell viability was evaluated as in (A) (scale bare: 100 µm); and (D) intracellular events induced by increasing concentrations of TAT-Pc 13. After 12 h of treatment, 786-O cells were lysed and analyzed by Western blot. TEXT PRINTED IN THE PICTURE: (B) TAT-Pc 13: TAT-Pc 13 (μM): 48; TAT-Pc 13 (μM): 60 DOUBTS OF THE COPYIST ABOUT THIS PICTURE: Panel B: 48 and 60 are printed in red at the x axis, where dashed lines drop from the two curves at about 50 on the Cell death (%) axis. No measure name (e.g. IC50) is printed with them. […]
In general terms: Immunoblotting shows a protein as a band on a membrane.

Experiment [2] concerns the target T1, CK2α/CK2β interaction in MCF-10A cells (Homo sapiens, UniProt P68400).
T1 construct: endogenous in cells; host or cells: MCF-10A (WT)
Briefly: CK2β immunoprecipitation from treated cells, Western blot of CK2α. Conditions: WT MCF-10A cells, 50 µM for 2 h, compared with TAT. The procedure: To assess the cell-penetrating properties of TAT-Pc 13, we used a tetramethylrhodamine-conjugated TAT-Pc 13 analogue (TAMRA-TAT-Pc 13). The cellular uptake of this fluorescently labeled peptide was very rapid: only 2 min after incubation, the peptide was detectable in MCF-10A cells and plateauing after 5 min (Figure 7A). The impact of TAT-Pc 13 cell uptake on the expression of the CK2 subunits in WT and CK2β-depleted MCF-10A cells was evaluated by Western blot. […] We next evaluated the effect of TAT-Pc 13 on the CK2 subunit association using two independent strategies. First, CK2β was immunoprecipitated in extracts of MCF-10A cells treated with TAT or TAT-Pc 13 and the amount of CK2α recovered in the immunoprecipitates was analyzed by Western blot.
Figure 7 Uptake and cellular effects of TAT-Pc 13. (A) kinetic of TAMRA-TAT-Pc 13 uptake in MCF-10A cells; (B) WT or CK2β-depleted MCF-10A cells were incubated with 50 µM TAT or TAT-Pc 13 for 8 h and the expression of CK2 subunits was evaluated by Western blot; (C) anti-CK2β immunoprecipitates were prepared from WT MCF-10A cells incubated with 50 µM TAT or TAT-Pc 13 for 2 h. Presence of CK2 subunits in the corresponding immunoprecipitates was determined by Western blot; (D) in situ proximity ligation images of MCF-10A cells incubated with 50 µM TAT (a,b,d) or TAT-Pc 13 (c) for 6 h. […]

Where a SMILES comes first, the peptide text is derived from it. Bridges are numbered along the chain shown (N, C = ends).

The values that follow come from paper PMC5374420, “In Search of Small Molecule Inhibitors Targeting the Flexible CK2 Subunit Interface” (Pharmaceuticals, 2017).

T1 sequence (P68400 whole entry): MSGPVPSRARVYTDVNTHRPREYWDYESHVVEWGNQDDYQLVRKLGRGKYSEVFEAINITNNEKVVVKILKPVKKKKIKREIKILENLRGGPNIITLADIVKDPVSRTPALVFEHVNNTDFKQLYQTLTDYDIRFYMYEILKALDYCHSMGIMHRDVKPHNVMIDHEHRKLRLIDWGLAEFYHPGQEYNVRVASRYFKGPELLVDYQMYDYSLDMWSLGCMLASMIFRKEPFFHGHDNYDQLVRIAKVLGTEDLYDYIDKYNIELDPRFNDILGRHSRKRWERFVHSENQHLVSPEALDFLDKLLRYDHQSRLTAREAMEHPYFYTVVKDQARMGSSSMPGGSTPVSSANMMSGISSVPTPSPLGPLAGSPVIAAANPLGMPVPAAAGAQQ

As for `CC[C@H](C)[C@@H]1NC(=O)[C@H](CCCCN)NC(=O)[C@H](Cc2ccccc2)NC(=O)CNC(=O)[C@H](Cc2ccc(O)cc2)NC(=O)[C@H](CC(C)C)NC(=O)[C@H](CCCNC(=N)N)NC(=O)CNC(=O)CNC(=O)[C@@H](NC(=O)[C@H](CCC(N)=O)NC(=O)[C@@H]2CCCN2C(=O)[C@@H]2CCCN2C(=O)[C@H](CCCNC(=N)N)NC(=O)[C@H](CCCNC(=N)N)NC(=O)[C@H](CCCNC(=N)N)NC(=O)[C@H](CCC(N)=O)NC(=O)[C@H](CCCNC(=N)N)NC(=O)[C@H](CCCNC(=N)N)NC(=O)[C@H](CCCCN)NC(=O)[C@H](CCCCN)NC(=O)[C@H](CCCNC(=N)N)NC(=O)CN)CCCCNC(=O)CNC(=O)CNC(=O)[C@H](Cc2c[nH]cn2)NC1=O` [TAT-Pc 13] (H-GRKKRRQRRRPPQKGGRLYGFKIHGG; lactam 14-C; N-terminus assumed), the “induction of cell death” value in the experiment with MDA MB-231 and in the experiment with HeLa was “induce cell death” each time. The concentration giving a half-maximal response (EC50) (in general, the midpoint of the concentration-response curve) in experiment [1] (12 h treatment, text says MCF-10A cells, Figure 8D legend says 786-O cells, read-out: EC50, phosphorylation of p21 on Thr145 and decrease of survivin expression) was found to be 15 µM. Moreover, the AKT activation entry in experiment [1] (increasing concentrations, 12 h) was “no sign of AKT activation”. In addition, in experiment [2], the “CK2α recovered in CK2β immunoprecipitates” value was “significantly less CK2α”.
